This note sets out measurements from patent publication US8057829B2, “Methods for repelling insects using sesquiterpene hydrocarbons and their derivatives” (Sterling International Inc., priority 2008, dated 2011).

For assay [1], the system named is male false stable fly Muscina stabulans antenna and female mosquito Aedes (Ochlerotatus) increpitus Dyar antenna. Description: GC-EAD responses of false stable fly and Aedes increpitus to a synthetic mixture. Particulars: about 100 ng of each compound, FIG. 5. As to the method: The GC-EAD responses of the male false stable fly Muscina stabulans antenna and the female mosquito Aedes (Ochlerotatus) increpitus Dyar antenna were tested on a synthetic mixture of linalool and two representative sesquiterpene hydrocarbons, β-caryophyllene and α-humulene, and one sesquiterpene oxide, β-caryophyllene oxide, with about 100 ng of each compound in the mixture.
(§1) The following procedures were employed to test the EAD response of an insect antenna to a repellent compound. The GC-EAD technique provides an efficient tool for screening behaviorally active repellents. Several synthetic mixtures of potential insect repellent candidates, mostly sesquiterpene hydrocarbons and derivatives, were analyzed in splitless mode using a Varian CP-3800 GC equipped with a polar column (Innowax; 1.0 μm film thickness, 30 m×0.53 mm ID; J & W Scientific), and a 1:1 effluent splitter that allowed simultaneous flame ionization detection (FID) and EAD of the separated volatile compounds. Helium was used as the carrier gas, and the injector temperature was 220° C. The column temperature was 50° C. for 2 min, rising to 240° C. at 10° C./min, then held for 10 min. The outlet for the EAD was held in a humidified air stream flowing at 0.5 liter/min. over an antennal preparation. A glass capillary indifferent electrode filled with Beadle-Ephrussi Ringer, and grounded via a silver wire, was inserted into the severed insect's head with the antennae. A similar recording electrode connected to a high-impedance DC amplifier with automatic baseline drift compensation was placed in contact with the distal end of one antenna (Zhang et al., Chemoecology, 10:69-80 (2000)). The antennal signals were stored and analyzed on a PC equipped with a serial IDAC interface box and the program EAD ver. 2.5 (Syntech, Hilversum, The Netherlands). The compound 1-octen-3-ol (known attractant for many flies and mosquitoes) was included in most of the synthetic mixtures, as a positive control. The results of the experiments are shown in FIGS. 1-10 and described above.

Assay [2] concerns antennae of Musca domestica, Lucillia sericata, Sarcophaga sp., Muscina stabulans, Culex pipiens, Aedes increpitus. Description: GC-EAD responses of several flies and two mosquitoes to a synthetic mixture. Particulars: about 100 ng of each compound, FIG. 6. The method, then: The GC-EAD responses of several species of flies and two species of mosquito antennae were tested on a synthetic mixture of 1-octen-3-ol, linalool, two representative sesquiterpene hydrocarbons, β-caryophyllene and α-humulene, ZE-nepetalactone, EZ-nepetalactone, and two known insect repellents, DEET, and SS220, with about 100 ng of each compound in the mixture. DEET and SS220 are used as positive controls in the experiment. The compound 1-octen-3-ol is a known attractant for the insects and is also used as a positive control. The insects tested are species of Musca domestica, Lucillia sericata, Sarcophaga sp., Muscina stabulans, Culex pipiens, and Aedes increpitus.
as §1, with “2.5 (Syntech, Hilversum, The Netherlands). The compound 1-octen-3-ol (known attractant for many flies and mosquitoes) was included in most of the synthetic mixtures, as a positive control. The results of the experiments are shown in FIGS. 1-10 and described above.” left out

Assay [3] concerns female antennae of sand fly Phlebotomus papatasi and mosquitoes Aedes aegypti, Anopheles gambiae, Anopheles stephensi. Description: GC-EAD responses of sand fly and three mosquitoes to synthetic mixtures. The settings on record: about 100 ng of each compound, on one or more of the sand fly or the mosquitoes, FIGS. 9 and 10. As to the method:
The GC-EAD responses of female antennae of the sand fly, Phlebotomus papatasi, and three species of mosquitoes, Aedes aegypti, Anopheles gambiae, and anopheles stephensi were tested on a synthetic mixture of 1-octen-3-ol, six sesquiterpene hydrocarbons including (+)-longipinene, (−)-isolongifolene, (+)-longifolene, β-caryophyllene, isolongifolenone, and α-humulene, and several known insect repellents including ZE-nepetalactone, EZ-nepetalactone, with about 100 ng of each compound in the mixture.
The GC-EAD responses of female antennae of the sand fly, Phlebotomus papatasi, and three species mosquitoes, Aedes aegypti, Anopheles gambiae, and anopheles stephensi were tested on a synthetic mixture of 1-octen-3-ol, linalool, β-caryophyllene oxide, isocaryophyllene, β-caryophyllene, and α-humulene, and DEET, with about 100 ng of each compound in the mixture.
as §1

Assay [4] has as its system houseflies. Description: Laboratory sticky trap bioassay of spatial repellency with egg powder attractant. It is filed as in vivo, housefly (Musca domestica). The method, then:
Laboratory bioassay tests were carried out to investigate the efficacy of some of the EAD-active compounds described above to act as spatial repellents against several insects. The procedure for the bioassay tests is described in Example 2 below. Briefly stated, the bioassay included using egg powder (EP) as an attractant for flies, while the compound whose insect repellency was being tested was placed in proximity to the egg powder. In FIGS. 11-13, the bioassay was carried out on houseflies using devices known by the designation Trécé Pherocon® VI sticky traps.
The following lab bioassay tests were employed to illustrate the efficacy of the compounds to effectively act as spatial repellents for flies. Three sets of tests were conducted in a fly testing room (23° C., 70% RH, and 12/12 (L/D) light regime illuminated by fluorescent lights). Two sets of tests were carried out using Trécé Pherocon® VI traps with sticky inserts, which were set up on poles evenly spaced on a rotating table. The traps were ca. 1 m above a table surface, and ca. 1 m apart from each other. Two grams of egg powder in a white cap (4 cm in diameter, 0.5 cm in height) used as an attractant was put on the center of the sticky insert in the sticky trap. The potential repellent candidate chemicals were loaded into polyethylene bags, and were hung under the inner roof of the traps, 1-1.5 cm above the egg powder attractant. A control had the empty white cap and blank polyethylene bag, while the positive control had only the egg powder and an empty polyethylene bag. The test table was rotated 1.5 r.p.h. […] About 200-300 houseflies (2-3 days old) were released into the testing room for each test. Tests were normally run from 8:00 am to 5:00 pm, and the numbers of houseflies caught in each trap were counted after each test. The results of these tests are shown in FIGS. 11-13 and described above.

Assay [5] deals with housefly (Musca domestica) antenna. Description: GC-EAD antennal response, housefly. Particulars: female housefly antenna; synthetic mixture, about 100 ng of each compound; FIG. 3.
Text: The sesquiterpene hydrocarbons and their derivatives disclosed herein have been identified as suitable insect repellents by testing via a gas chromatographic-electroantennographic detection (GC-EAD) method as described in Example 1 below. This method can be used to efficiently screen for potentially behaviorally active compounds, including insect repellents, attractants, deterrents, or attraction-inhibitors from complex natural sources or synthetic mixtures.
The GC-EAD responses of the female housefly antenna were tested on a synthetic mixture of 1-octen-3-ol, a known attractant used as a positive control, and representative sesquiterpene hydrocarbons and derivatives, (+)-longipinene, (−)-isolongifolene, (+)-longifolene, β-caryophyllene, α-humulene, and isolongifolenone, with about 100 ng of each compound in the mixture.
The GC-EAD responses of the male housefly antenna were tested on a synthetic mixture of 1-octen-3-ol, and two representative sesquiterpenes, β-caryophyllene and isocaryophyllene, with about 100 ng of each compound in the mixture.
as §1

The subject of assay [6] is antennae of housefly, sand fly, and mosquitoes Aedes aegypti, Anopheles gambiae, Anopheles stephensi. Description: GC-EAD antennal responses to SPME samples of clove essential oil. Particulars: component of clove essential oil SPME sample; response by one or more of the insects; FIG. 1. As to the method: The GC-EAD antennal response of a female housefly (Musca domestica), sand fly (Phlebotomus papatasi), and mosquitoes including the species Aedes aegypti, Anopheles gambiae, and Anopheles stephensi were tested with clove essential oil. FIG. 1 is a simultaneous recording of GC flame ionization detection (FID) and electroantennographic detection (EAD) of the insect antennae to solid phase microextraction (SPME: CAR/PDMS) samples of clove essential oil in a 20 ml glass vial for 20 sec.
as §1, with “The results of the experiments are shown in FIGS. 1-10 and described above.” left out

Turning to `C=CC(C)(O)CCC=C(C)C` (stereo not shown) [linalool, 3,7-dimethyl-3-hydroxy-1,6-octadiene], the GC-EAD antennal activity entry in assay [1] is given as “active on at least one of the insects tested”; in assay [2] it was “active on at least one of the insects tested”; in assay [3], “antennally active”. Moreover, the “number of house flies per trap” value in assay [4] (egg powder attractant plus repellent, FIG. 11, egg powder alone 44) is 5.5 house flies per trap. In addition, the “repellency against houseflies, in words” value in assay [4] (laboratory trap bioassay with egg powder attractant) was “effective housefly repellents”.
`C/C1=C\CC/C(C)=C/CC(C)(C)/C=C/C1` [α-humulene]: the GC-EAD antennal activity entry in assay [5] is reported as “active”; in assay [6], “EAD-active”; in assay [1], “active on at least one of the insects tested”; in assay [2], “active on at least one of the insects tested”; in assay [3] it was “antennally active”.
